Results taken from ChEMBL document CHEMBL1811888, “Synthesis, biological activity and HPLC validation of 1,2,3,4-tetrahydroacridine derivatives as acetylcholinesterase inhibitors” (Eur J Med Chem, 2011).

How the values were obtained:
Acetylcholinesterase = Acetylcholinesterase (Homo sapiens, UniProt P22303); assay: Inhibition of AChE by Ellman's method
Cholinesterase = Cholinesterase (Homo sapiens, UniProt P06276)
Chain of Cholinesterase (P06276 whole entry): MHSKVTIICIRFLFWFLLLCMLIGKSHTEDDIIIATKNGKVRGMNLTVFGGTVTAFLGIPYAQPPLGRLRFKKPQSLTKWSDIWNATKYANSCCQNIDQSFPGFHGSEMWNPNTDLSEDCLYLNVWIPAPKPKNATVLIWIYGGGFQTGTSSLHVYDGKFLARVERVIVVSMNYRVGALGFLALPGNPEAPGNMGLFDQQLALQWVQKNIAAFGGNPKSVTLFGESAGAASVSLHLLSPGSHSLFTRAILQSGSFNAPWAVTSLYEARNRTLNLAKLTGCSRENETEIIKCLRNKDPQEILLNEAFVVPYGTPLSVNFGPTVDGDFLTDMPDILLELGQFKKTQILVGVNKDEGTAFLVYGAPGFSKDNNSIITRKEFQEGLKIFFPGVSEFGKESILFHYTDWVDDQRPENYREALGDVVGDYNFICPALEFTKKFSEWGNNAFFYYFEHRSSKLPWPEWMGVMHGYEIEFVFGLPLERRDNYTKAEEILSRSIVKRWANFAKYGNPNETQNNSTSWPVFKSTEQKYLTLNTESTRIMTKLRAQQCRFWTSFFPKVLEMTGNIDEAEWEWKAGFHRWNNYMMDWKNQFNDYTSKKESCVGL
Description: Inhibition of BChE by Ellman's method

Chain of Acetylcholinesterase (P22303 whole entry): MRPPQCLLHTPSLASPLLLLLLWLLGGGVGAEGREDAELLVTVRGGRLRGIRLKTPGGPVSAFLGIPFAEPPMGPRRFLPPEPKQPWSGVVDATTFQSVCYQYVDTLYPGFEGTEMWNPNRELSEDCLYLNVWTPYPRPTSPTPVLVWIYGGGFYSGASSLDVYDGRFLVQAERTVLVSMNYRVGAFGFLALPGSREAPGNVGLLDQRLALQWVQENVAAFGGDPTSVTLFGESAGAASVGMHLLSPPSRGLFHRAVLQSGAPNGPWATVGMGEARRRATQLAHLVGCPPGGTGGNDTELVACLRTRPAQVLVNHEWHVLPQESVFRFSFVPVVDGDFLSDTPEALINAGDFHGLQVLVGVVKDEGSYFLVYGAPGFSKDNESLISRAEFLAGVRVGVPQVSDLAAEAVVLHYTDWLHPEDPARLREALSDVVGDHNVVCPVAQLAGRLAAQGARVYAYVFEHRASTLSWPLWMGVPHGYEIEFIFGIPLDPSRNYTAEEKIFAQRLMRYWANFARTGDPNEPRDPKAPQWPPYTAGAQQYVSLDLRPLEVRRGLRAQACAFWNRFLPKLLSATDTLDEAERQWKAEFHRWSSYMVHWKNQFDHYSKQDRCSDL

O=C(NCCNc1c2c(nc3ccccc13)CCCC2)c1ccc(F)cc1
IC50 (Acetylcholinesterase): 0.815 nM
IC50 (Cholinesterase): 0.0449 nM

O=C(NCCCCNc1c2c(nc3ccccc13)CCCC2)c1ccc(F)cc1
IC50 (Acetylcholinesterase): 0.784 nM
IC50 (Cholinesterase): 0.0354 nM

O=C(NCCCNc1c2c(nc3ccccc13)CCCC2)c1ccc(F)cc1
IC50 (Acetylcholinesterase): 0.809 nM
IC50 (Cholinesterase): 0.0212 nM
